Data published in paper PMC6753678, “Fueling Open Innovation for Malaria Transmission-Blocking Drugs: Hundreds of Molecules Targeting Early Parasite Mosquito Stages” (Frontiers in Microbiology, 2019).
Where two headings read alike, the source gives them in different places.

Assays:
HepG2 cells = assay: HepG2 cytotoxicity assay; conditions: for Pb ODA (this manuscript) HepG2 cytoxicity: HepG2 cytotoxicity listed with the Pb ODA data set (this manuscript); for IC50: read-out: HepG2 cytotoxicity assay IC50, dose response confirmation
Procedure, shortened: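 Percent inhibition derived from fluorescent viability readout, normalised to DMSO (negative) and 50 μM doxorubicin (positive). Compound incubation lasted 48 h at 37°C, 5% CO2, with 2,500 HepG2 cells/well in MEM plus 10% FBS and 1% NEAA.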

[1] = system: P. berghei ookinete development; conditions: for % inhibition, Replicate A / % inhibition, Replicate B: primary screen at 1 μM
[2] = system: 3D7-strain P. falciparum asexual parasites; assay: P. falciparum asexual growth inhibition assay (Pf GIA); assay type: cell-based, Plasmodium falciparum; conditions: dose response confirmation; read-out: Pf asexual growth inhibition assays IC50
Procedure, shortened: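 3D7 parasites at 0.25% parasitemia, 2% hematocrit were exposed to compounds in dose response for 72 h at 37°C under 5% CO2, 5% O2. Viability read as parasite LDH activity (nitro blue tetrazolium, A650) after freeze-thaw; inhibition scaled to chloroquine (50 μM) and DMSO controls, mean of three biological replicates.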

[3] = read-out: Pb ODA (this manuscript) IC50, P. berghei ookinete development assay, this manuscript
[4] = read-out: Pb Ookinete development assay IC50, dose response confirmation
[5] = unified HepG2 value across the three screens
[6] = read-out: Pb ODA IC50, this manuscript
[7] = HepG2 values of the three screens unified

SMILES	Pb ODA (this manuscript) HepG2 cytoxicity (HepG2 cells) [µM]	IC50 (HepG2 cells) [µM]	Is compound selective in assay? Pb ODA active? [1]	% inhibition, Replicate A [1] [%]	% inhibition, Replicate B [1] [%]	IC50 [1, 3] [µM]	IC50 [1, 4] [µM]	IC50 [2] [µM]	Unified cytotox (HepG2 cells; [5]) [µM]	Is compound selective in assay? Pb ODA active? ([1]; 1: YES, 0: NO)	IC50 [1, 6] [µM]	Unified cytotox (HepG2 cells; [7]) [µM]	% inhibition, Replicate A ([1]; 1 µM) [%]	% inhibition, Replicate B ([1]; 1 µM) [%]
Br.CC1(C)NC(N)=NC(=N)N1OCCCOc1cccc(Cl)c1 [TCMDC-131762]	0.001	0.001	0 (key: 1: YES; 0: NO)	47.79	53.67	2.1	2.1	< 0.0002	–	–	–	–	–	–
CC[C@H]1CN2CCc3cc(OC)c(OC)cc3[C@@H]2C[C@@H]1C[C@H]1NCCc2c1cc(OC)c(O)c2Cl [TCMDC-131802]	4.52	4.52	1 (key: 1: YES; 0: NO)	61.67	93.54	0.27	0.268	0.156	–	–	–	–	–	–
Br.CC[C@H]1CN2CCc3cc(OC)c(OC)cc3[C@@H]2C[C@@H]1C[C@H]1NCCc2c1cc(OC)c(O)c2I [TCMDC-131829]	5.43	5.43	1 (key: 1: YES; 0: NO)	45.92	90.22	0.41	0.412	0.098	–	–	–	–	–	–
CC[C@@]1(O)C(=O)OCc2c1cc1n(c2=O)Cc2c-1nc1cc3c(cc1c2CN1CCN(C)CC1)OCCO3.Cl [TCMDC-131875]	–	1.26	–	61.11	69.44	–	2.37	0.204	1.26	0 (0: NO)	2.37	–	–	–
CC[C@@]1(O)C(=O)OCc2c1cc1n(c2=O)Cc2c-1nc1cc3c(cc1c2CN1CCOCC1)OCO3.O=C(O)C(F)(F)F [TCMDC-131876]	–	0.47	–	79.37	70.89	–	1.25	0.007	0.47	0 (0: NO)	1.25	–	–	–
Nc1nc(N)c2c(ccc3c2cnn3Cc2cccnc2)n1 [TCMDC-131932]	0.055	0.055	0 (key: 1: YES; 0: NO)	68.89	58.00	2.39	2.39	0.0013	–	–	–	–	–	–
CN(C)S(=O)(=O)n1ncc2c3c(N)nc(N)nc3ccc21.Cl [TCMDC-131933]	0.001	0.001	0 (key: 1: YES; 0: NO)	39.05	54.28	0.54	0.539	0.023	–	–	–	–	–	–
COc1ccc(Cn2ncc3c4c(N)nc(N)nc4ccc32)cc1OC [TCMDC-131934]	0.00214	0.00214	0 (key: 1: YES; 0: NO)	44.86	51.03	1.53	1.53	0.058	–	–	–	–	–	–
CCCCCCCc1cc(=O)c2ccccc2[nH]1 [TCMDC-132026]	20.65	20.7	1 (key: 1: YES; 0: NO)	86.88	74.93	1.14	1.14	0.458	–	–	–	–	–	–
Nc1c2ccccc2nc2ccc(Cl)cc12 [TCMDC-132029]	–	13.5	–	75.70	81.80	–	1.46	0.324	13.49	0 (0: NO)	1.46	–	–	–
COc1ccc2c(=O)c3ccc(OC)cc3[nH]c2c1 [TCMDC-132054]	100.00	100	1 (key: 1: YES; 0: NO)	107.15	103.78	0.58	0.575	2.42	–	–	–	–	–	–
COc1ccc(C23Oc4cc(OC)cc(OC)c4C2(O)C2(CC3c3ccccc3)SCCCS2)cc1 (stereo not drawn) [TCMDC-132098]	–	100	–	104.91	114.13	–	0.401	0.712	100.00	1 (1: YES)	0.4	–	–	–
COc1ccc(-c2ccc([N+](=O)[O-])cc2C(=O)NCC(C)Oc2ccc(C(F)(F)F)cc2)cc1 (stereo not drawn) [TCMDC-132304]	–	100	–	29.22	50.52	–	4.01	0.52	100.00	1 (1: YES)	4.01	–	–	–
Cc1[nH]c(C)c(-c2ccc(-c3ccc(OCC(F)(F)F)cc3)nc2)c(=O)c1Cl [TCMDC-132306]	–	100	–	58.32	97.73	–	1.24	0.655	–	1 (1: YES)	1.24	100.00	–	–
Cc1[nH]c(C)c(-c2ccc(-c3ccc(C(F)F)cc3)nc2)c(=O)c1Cl [TCMDC-132329]	–	100	–	72.54	35.56	–	7.79	1.44	–	1 (1: YES)	7.8	100.00	–	–
Cc1noc(C)c1-c1cccc(CNCc2ccc(-c3cccc(-c4nc5cc(F)ccc5[nH]4)c3)cc2)c1.O=C(O)C(F)(F)F [TCMDC-133060]	–	15.5	–	12.93	53.61	–	13.7	1.3	15.49	0 (0: NO)	13.7	–	–	–
Cc1noc(C)c1-c1cccc(CNCc2ccc(-c3ccc(-c4nc5cccc(C)c5[nH]4)cc3)cc2)c1.O=C(O)C(F)(F)F [TCMDC-133061]	–	7.94	–	50.05	37.24	–	2.66	0.12	7.94	0 (0: NO)	2.66	–	–	–
Cc1cc(=O)c(-c2ccc(Oc3cccc(C(F)(F)F)c3)cc2)c(C)[nH]1 [TCMDC-133308]	14.45	14.5	1 (key: 1: YES; 0: NO)	–	–	0.73	0.733	0.385	–	–	–	–	59.11	56.29
COc1ccc(-c2cnc(N)c(-c3ccc(C(N)=O)cc3)c2)cc1OC [TCMDC-133349]	–	100	–	68.77	82.48	–	0.426	0.666	100.00	1 (1: YES)	0.43	–	–	–
O=C(Nc1ccc(OC2CCN(Cc3ccc(F)cc3)CC2)c(Cl)c1)c1cccs1.O=C(O)C(F)(F)F [TCMDC-133746]	38.90	38.9	1 (key: 1: YES; 0: NO)	51.32	44.22	1.16	1.17	0.242	–	–	–	–	–	–
O=C(Nc1ccc(OC2CCN(Cc3ccc(F)cc3)C2)c(Cl)c1)c1cccs1.O=C(O)C(F)(F)F (stereo not drawn) [TCMDC-133757]	–	25.1	–	48.09	57.60	–	1.91	0.187	25.12	1 (1: YES)	1.91	–	–	–
O=C(Nc1ccc(OC2CCN(Cc3ccc(F)cc3)C2)c(Cl)c1)c1ccc(F)cc1.O=C(O)C(F)(F)F (stereo not drawn) [TCMDC-133763]	–	24.6	–	33.23	66.02	–	2.95	0.878	24.55	0 (0: NO)	2.95	–	–	–
CNC(=O)c1ccccc1Nc1nc(Nc2ccc(CCN3CCN(C)CC3)cc2)ncc1Cl.Cl [TCMDC-133800]	2.26	2.26	0 (key: 1: YES; 0: NO)	66.37	76.75	2.31	2.31	0.402	–	–	–	–	–	–
Cc1cccc2nc(-c3ccc(-c4ccc(CN5CC(C)OC(C)C5)cc4)cc3)[nH]c12.O=C(O)C(F)(F)F (stereo not drawn) [TCMDC-133823]	15.14	15.1	1 (key: 1: YES; 0: NO)	122.68	88.91	0.43	0.434	0.168	–	–	–	–	–	–
